# Assay results: patent publication US20210403864A1, “METHODS AND COMPOSITIONS FOR TREATING ACTIVATED G-ALPHA Q MUTANT CANCERS OR MELANOCYTIC MALIGNANCIES” (Memorial Sloan Kettering Cancer Center, priority 2018, published 2021)
# Like-named read-outs stand apart in the source and are kept apart here.
# How the values were obtained:
# [1] = test system: RASGRP3, CRAF, MEK, ERK phosphorylation and cyclin D1 expression; test: Western blot of Gαq downstream signaling in melan-a cells; format: cell-based, mouse
# Protocol: The last sample for each cell line was also treated with TPA for 24 hours showing rescue of the pathway.
# Samples were treated with 500 nM YM for 0, 2, 4, 8, and 24 hours with the last lane being treatment plus TPA add back.
# (§1) Immunoblotting. Lysates were harvested using SDS lysis buffer (50 mM Tris-HCL, pH 6.8, 1 mM EDTA, 150 mM NaCl, 1% SDS, […]) supplemented with fresh proteinase and phosphatase inhibitors (PhosSTOP, Roche, Basel, Switzerland; Complete EDTA-Free, Roche, Basel, Switzerland) and 1% PMSF (Sigma-Aldrich, St. Louis, Mo.). Lysates were incubated on ice for 30 minutes, sonicated for 15 minutes, and then centrifuged at max speed for 10 minutes at 4° C. Protein levels were quantified using BCA protein assay (Thermo Scientific, Waltham, Mass.). NuPAGE LDS Sample Buffer (4×) was added to a final concentration of 1×. Samples were run on NuPAGE Novex 4-12% Bis-Tris protein gels (Life Technologies, Carlsbad, Calif.), transferred electrophoretically to 0.45 μm PVDF membranes (Immobilon, EMD Millipore, Burlington, Mass.), and then blocked with StartingBlock blocking buffer (Thermo Scientific, Waltham, Mass.) for 1 hour at room temperature. Primary antibodies were incubated at 4° C. overnight in StartingBlock buffer at 1:1,000 dilution, unless noted otherwise. Primary Antibodies used in the experiments described herein are provided below:
# The effect of YM on Gαq downstream signaling was assayed, including RASGRP3 phosphorylation by PKC, phosphorylation of CRAF, MEK, and ERK (downstream of RAS) and cyclin D1 expression which integrates signaling to promote cell cycle progression.
# [2] = test system: human UVM cell lines that harbored the GNAQ^Q209L/P mutation; test: IP1 accumulation assay in UVM cells; format: cell-based; conditions: YM treatment at 24 hours
# Protocol: Cells were treated with increasing concentrations of YM for 3 hours (top) and 24 hours (bottom). Error bars, s.e.m from three biological replicates, each with three technical replicates.
# IP1 Accumulation Assay. IP1 concentrations in GNAQ-transfected HEK293T cells, GNAQ-expressing melan-a cells and uveal melanoma cells was measured using a competitive homogenous time resolved fluorescence (HTRF) assay (CisBio, Bedford, Mass.). Briefly, 9,000 transiently transfected-HEK293T cells, 5,000 melan-a cells and 5,000 uveal melanoma cells were seeded in low-volume 384-well plates in 7 μL media for 24 hours prior YM-254890 treatment. […] Following incubation, cells were lysed by adding 3 μL/well of d2-labeled IP1 analogue as the fluorescence acceptor and the Terbium cryptate-labeled anti-IP1 mAb as the fluorescence donor, diluted in the kit-supplied lysis buffer. The plates were incubated overnight at RT and time-resolved fluorescence signals were read using the BioTek Synergy NEO plate reader (BioTek Instruments, Winooski, Vt.) at 620 nm and 655 nm. Results were calculated as a 665 nm/620 nm signal ratio, and IP1 concentrations were interpolated from a standard curve prepared using the supplied IP1 calibrator. […] Dose-response curves and bar graphs were analyzed using GraphPad Prism 7.0 software. […]
# [3] = test system: PKC and MAPK signaling (pRASGRP3, p-CRAF, p-MEK1/2, p-ERK1/2), cyclin D1 protein; test: Western blot of downstream UVM signaling in UVM cells and A375 cells; format: cell-based, human; conditions: for inhibition of PKC and MAPK signaling and cyclin D1 protein / inhibition of MAPK targets (p-CRAF, p-MEK1/2, p-ERK1/2) / change in pRASGRP3: 500 nM YM; for inhibition of MAPK targets (p-CRAF, p-MEK1/2, p-ERK1/2): 2 hours
# Protocol: as §1
# Given the unexpected sensitivity of GNAQ^Q209L mutation to YM in the melan-a system, the effect of YM on three human UVM cell lines that harbored the GNAQ^Q209L/P mutation was evaluated, using the BRAF^V600E mutant A375 cutaneous melanoma cell line as a negative control.
# [4] = target: Gαq^Q209L (Homo sapiens, UniProt P50148, Q209L); conditions: overexpression systems, literature, cited from earlier work
# Chain of Gαq^Q209L (P50148 whole entry Q209L): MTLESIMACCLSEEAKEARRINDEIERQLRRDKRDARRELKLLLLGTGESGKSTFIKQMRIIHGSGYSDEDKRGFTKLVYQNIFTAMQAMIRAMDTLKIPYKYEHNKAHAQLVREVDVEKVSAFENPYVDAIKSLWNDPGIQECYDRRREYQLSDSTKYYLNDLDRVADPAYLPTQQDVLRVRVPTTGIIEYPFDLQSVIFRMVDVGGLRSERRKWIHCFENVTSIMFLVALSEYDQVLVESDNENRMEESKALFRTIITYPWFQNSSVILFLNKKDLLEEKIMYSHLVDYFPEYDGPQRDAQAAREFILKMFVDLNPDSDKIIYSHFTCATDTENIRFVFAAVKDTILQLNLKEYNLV
# [5] = test system: KRAS^G12V-expressing melan-a cells; test: TPA-independent cell growth, CellTiter-glo 2.0; format: cell-based, mouse; conditions: 5 days, without TPA
# Protocol: (§2) Data are expressed as the percentage relative light units (RLU) relative to that observed with vehicle. Error bars, s.e.m. from triplicate samples.
# (§3) Cell Culture and in vitro analysis. Mutation dependent melan-a cells were generated by transducing cells with cDNAs in MSCV-PURO (retrovirus) and then selecting cells with puromycin (1 μg/ml) for two days. TPA (Sigma-Aldrich, St. Louis, Mo.) was then withdrawn from cultures. Cells with activating mutations (CYSLTR2^L129Q, GNAQ^G48V/R183Q/Q209L, KRAS^G12V, and BRAF^V600E) continued to proliferate over several passages (>2 weeks) and were then validated with qRT-PCR and immunoblots. Vector and WT controls were unable to maintain proliferation after a couple passages upon TPA withdrawal. All cells were cultured in media containing 10% FBS, L-glutamine ([…]), penicillin (100 U/ml), streptomycin (100 μg/ml). Melan-a cells provided by D. Bennett, St. George's Hospital, University of London (Johnson C P, et al., PLoS One. 12(6):1-17 (2017)), were cultured in RPMI supplemented with 200 nM TPA unless otherwise noted. HEK293T (from ATCC, Manassas, Va.) cells were cultured in DMEM-Q and UVM cells were cultured in RPMI. All cells tested negative for mycoplasma. Cell growth assays and YM dose response curves were assayed using CellTiter-glo 2.0 (Promega, Madison, Wis.) at given time points or after five days of incubation with YM and readout on a Glomax Luminometer (Promega, Madison, Wis.). IC50 values were calculated using Prism 7.0 software. Growth assays were compared to day 1 readings and dose response curves were compared to vehicle. Data shown is representative of at least three independent experiments with at least three technical replicates. Dose-response curves and growth assays were analyzed using GraphPad Prism 7.0 software.
# [6] = test system: GNAQ^R183Q-expressing melan-a cells; test: TPA-independent cell growth, CellTiter-glo 2.0; format: cell-based, mouse; conditions: 5 days, without TPA
# Protocol: as §2, §3
substance,measurement,setting,value
YM-254890,downstream signaling targets with TPA supplementation,"[1]; 24 hours after YM treatment, plus TPA",completely rescued
same,inhibition of MAPK signaling,"[1]; BRAF^V600E-expressing melan-a cells, 500 nM YM",ineffective
same,"inhibition of downstream signaling targets (p-RASGRP3, p-CRAF, p-MEK, p-ERK, cyclin D1)","[1]; CYSLTR2^L129Q, GNAQ^G48V, GNAQ^R183Q and GNAQ^Q209L-expressing melan-a cells, 500 nM YM, 0-24 hours",inhibited
same,kinetics of inhibition of downstream signaling compared to CYSLTR2^L129Q and GNAQ^G48V-expressing cells,"[1]; GNAQ^Q209L-expressing melan-a cells, 500 nM YM",slower kinetics
same,kinetics of inhibition of downstream signaling compared to CYSLTR2^L129Q and GNAQ^G48V-expressing cells,"[1]; GNAQ^R183Q-expressing melan-a cells, 500 nM YM",slower kinetics
same,inhibition of MAPK signaling,"[1]; KRAS^G12V-expressing melan-a cells, 500 nM YM",ineffective
same,inhibition of IP1 accumulation,[2],inhibited
same,inhibition of PKC and MAPK signaling and cyclin D1 protein,[3]; A375 cells (negative control),not in A375 cells
same,p-ERK1/2 level,"[3]; Mel202 cells, 24 hours",rebound
same,inhibition of pRASGRP3,"[3]; Mel202 cells, earlier time points, in contrast to Mel270 and OMM1.3",greater inhibition
same,inhibition of MAPK targets,"[3]; Mel202 cells, in contrast to Mel270 and OMM1.3",decreased inhibition
same,"inhibition of MAPK targets (p-CRAF, p-MEK1/2, p-ERK1/2)",[3]; Mel270 cells,significant inhibition
same,change in pRASGRP3,"[3]; Mel270 cells, 24 hours",small decreases
same,"inhibition of MAPK targets (p-CRAF, p-MEK1/2, p-ERK1/2)",[3]; OMM1.3 cells,significant inhibition
same,change in pRASGRP3,"[3]; OMM1.3 cells, 24 hours",small decreases
same,inhibition of PKC and MAPK signaling and cyclin D1 protein,[3]; UVM cells,inhibited
same,inhibition of aberrant Gαq signaling downstream of Gαq^Q209L,[4],ineffective
same,inhibition of aberrant Gαq signaling downstream of Gαq^Q209L,[4]; listed as YM,unable to inhibit
same,sensitivity of TPA-independent cell growth to YM,[5],completely resistant
same,sensitivity of TPA-independent cell growth to YM,[6],modestly less sensitive
